Legend:
Test in all cases: biochemical
[1] = target: T1, safety screen panel of human pharmacological targets (Homo sapiens, UniProt P10275); settings: read-out: percent inhibition: AR (h) (agonist radioligand)
T1 sequence (P10275 1-920): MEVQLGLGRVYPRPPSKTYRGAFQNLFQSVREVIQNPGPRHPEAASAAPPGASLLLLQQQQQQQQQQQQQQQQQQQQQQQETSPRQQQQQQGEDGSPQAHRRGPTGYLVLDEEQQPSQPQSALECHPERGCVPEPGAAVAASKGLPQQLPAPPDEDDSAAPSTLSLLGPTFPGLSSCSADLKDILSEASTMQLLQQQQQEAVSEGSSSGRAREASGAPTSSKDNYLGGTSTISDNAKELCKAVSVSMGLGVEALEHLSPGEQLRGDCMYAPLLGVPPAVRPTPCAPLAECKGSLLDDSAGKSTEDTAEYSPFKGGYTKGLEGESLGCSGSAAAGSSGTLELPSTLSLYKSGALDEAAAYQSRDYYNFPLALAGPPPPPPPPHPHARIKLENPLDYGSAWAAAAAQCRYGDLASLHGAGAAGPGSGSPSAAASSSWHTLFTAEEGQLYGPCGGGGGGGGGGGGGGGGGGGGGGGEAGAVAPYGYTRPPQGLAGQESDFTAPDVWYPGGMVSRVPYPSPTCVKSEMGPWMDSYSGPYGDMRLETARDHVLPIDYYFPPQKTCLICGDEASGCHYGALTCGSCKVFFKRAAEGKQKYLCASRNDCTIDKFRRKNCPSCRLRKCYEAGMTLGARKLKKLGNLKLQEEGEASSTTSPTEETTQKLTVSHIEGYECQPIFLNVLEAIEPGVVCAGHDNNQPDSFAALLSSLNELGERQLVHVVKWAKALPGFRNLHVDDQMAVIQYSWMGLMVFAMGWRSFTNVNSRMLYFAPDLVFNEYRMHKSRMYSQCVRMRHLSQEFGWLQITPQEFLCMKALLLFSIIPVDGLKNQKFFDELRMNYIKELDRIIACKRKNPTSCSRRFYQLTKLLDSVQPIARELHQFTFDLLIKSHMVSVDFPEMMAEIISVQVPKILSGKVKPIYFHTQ

[2] = target: safety screen panel of human pharmacological targets (Rattus norvegicus, UniProt P34975); settings: read-out: percent inhibition: kappa (KOP) (agonist radioligand)
Chain of safety screen panel of human pharmacological targets (Rattus norvegicus, UniProt P34975) (P34975 whole entry): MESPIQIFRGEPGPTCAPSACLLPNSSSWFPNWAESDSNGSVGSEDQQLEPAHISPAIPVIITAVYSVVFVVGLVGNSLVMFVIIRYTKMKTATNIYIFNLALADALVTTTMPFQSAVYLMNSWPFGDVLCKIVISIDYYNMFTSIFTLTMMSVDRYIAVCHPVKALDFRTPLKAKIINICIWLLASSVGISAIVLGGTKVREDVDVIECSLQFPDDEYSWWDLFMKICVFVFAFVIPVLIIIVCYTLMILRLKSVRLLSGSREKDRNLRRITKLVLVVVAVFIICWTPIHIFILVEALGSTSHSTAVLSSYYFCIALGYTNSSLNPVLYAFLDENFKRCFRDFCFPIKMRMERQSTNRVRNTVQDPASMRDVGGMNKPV

[3] = target: T2, safety screen panel of human pharmacological targets (Homo sapiens, UniProt P46098); settings: read-out: percent inhibition: 5-HT3 (h) (antagonist radioligand)
T2 sequence (P46098 24-478): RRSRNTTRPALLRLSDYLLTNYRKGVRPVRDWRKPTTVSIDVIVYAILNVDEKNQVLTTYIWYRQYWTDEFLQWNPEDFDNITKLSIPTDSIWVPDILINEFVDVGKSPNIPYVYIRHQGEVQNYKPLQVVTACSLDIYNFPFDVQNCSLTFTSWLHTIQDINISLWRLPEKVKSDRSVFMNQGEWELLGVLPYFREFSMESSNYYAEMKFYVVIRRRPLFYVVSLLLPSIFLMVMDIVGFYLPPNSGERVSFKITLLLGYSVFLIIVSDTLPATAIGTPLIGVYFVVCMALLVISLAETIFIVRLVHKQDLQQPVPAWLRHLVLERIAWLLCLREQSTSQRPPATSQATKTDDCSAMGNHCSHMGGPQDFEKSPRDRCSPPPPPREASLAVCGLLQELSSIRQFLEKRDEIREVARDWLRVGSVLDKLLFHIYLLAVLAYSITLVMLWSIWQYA

[4] = target: safety screen panel of human pharmacological targets (Homo sapiens, UniProt P23219); settings: read-out: percent inhibition: COX1(h)
Chain of safety screen panel of human pharmacological targets (Homo sapiens, UniProt P23219) (P23219 24-599): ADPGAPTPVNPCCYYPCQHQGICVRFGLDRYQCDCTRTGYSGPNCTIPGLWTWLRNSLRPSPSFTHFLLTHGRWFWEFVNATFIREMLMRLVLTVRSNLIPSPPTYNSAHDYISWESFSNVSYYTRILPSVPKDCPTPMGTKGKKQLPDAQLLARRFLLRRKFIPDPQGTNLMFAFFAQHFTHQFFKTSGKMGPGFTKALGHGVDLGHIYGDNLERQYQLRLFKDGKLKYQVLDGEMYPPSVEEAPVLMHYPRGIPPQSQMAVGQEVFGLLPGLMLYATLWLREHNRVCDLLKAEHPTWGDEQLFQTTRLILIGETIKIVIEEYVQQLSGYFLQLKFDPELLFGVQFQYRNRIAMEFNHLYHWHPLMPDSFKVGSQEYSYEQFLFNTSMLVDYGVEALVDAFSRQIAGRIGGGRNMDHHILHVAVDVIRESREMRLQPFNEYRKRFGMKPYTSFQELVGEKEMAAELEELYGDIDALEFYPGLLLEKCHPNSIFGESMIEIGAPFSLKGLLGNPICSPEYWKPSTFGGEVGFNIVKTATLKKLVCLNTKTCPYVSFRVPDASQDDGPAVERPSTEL

[5] = target: safety screen panel of human pharmacological targets (Homo sapiens, UniProt P43681); settings: read-out: percent inhibition: N neuronal alpha 4beta 2 h) (agonist radioligand)
Chain of safety screen panel of human pharmacological targets (Homo sapiens, UniProt P43681) (P43681 27-627): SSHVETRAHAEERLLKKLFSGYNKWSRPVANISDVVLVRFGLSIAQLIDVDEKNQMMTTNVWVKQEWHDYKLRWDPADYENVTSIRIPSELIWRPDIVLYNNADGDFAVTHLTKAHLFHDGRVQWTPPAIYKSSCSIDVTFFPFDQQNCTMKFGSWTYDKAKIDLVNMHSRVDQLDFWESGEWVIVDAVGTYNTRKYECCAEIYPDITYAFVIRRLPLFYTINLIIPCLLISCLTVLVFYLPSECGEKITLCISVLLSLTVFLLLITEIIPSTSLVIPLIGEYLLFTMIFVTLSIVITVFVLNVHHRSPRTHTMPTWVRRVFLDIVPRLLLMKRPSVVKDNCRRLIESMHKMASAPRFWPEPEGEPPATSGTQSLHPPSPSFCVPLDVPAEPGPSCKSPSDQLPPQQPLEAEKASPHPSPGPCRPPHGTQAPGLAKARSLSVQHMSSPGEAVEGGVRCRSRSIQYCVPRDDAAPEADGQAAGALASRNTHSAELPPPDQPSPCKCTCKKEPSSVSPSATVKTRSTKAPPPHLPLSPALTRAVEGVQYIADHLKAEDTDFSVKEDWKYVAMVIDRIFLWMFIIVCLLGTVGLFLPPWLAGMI

[6] = target: T3, safety screen panel of human pharmacological targets (Homo sapiens, UniProt P04150); settings: read-out: percent inhibition: GR (h) (agonist radioligand)
T3 sequence (P04150 1-777): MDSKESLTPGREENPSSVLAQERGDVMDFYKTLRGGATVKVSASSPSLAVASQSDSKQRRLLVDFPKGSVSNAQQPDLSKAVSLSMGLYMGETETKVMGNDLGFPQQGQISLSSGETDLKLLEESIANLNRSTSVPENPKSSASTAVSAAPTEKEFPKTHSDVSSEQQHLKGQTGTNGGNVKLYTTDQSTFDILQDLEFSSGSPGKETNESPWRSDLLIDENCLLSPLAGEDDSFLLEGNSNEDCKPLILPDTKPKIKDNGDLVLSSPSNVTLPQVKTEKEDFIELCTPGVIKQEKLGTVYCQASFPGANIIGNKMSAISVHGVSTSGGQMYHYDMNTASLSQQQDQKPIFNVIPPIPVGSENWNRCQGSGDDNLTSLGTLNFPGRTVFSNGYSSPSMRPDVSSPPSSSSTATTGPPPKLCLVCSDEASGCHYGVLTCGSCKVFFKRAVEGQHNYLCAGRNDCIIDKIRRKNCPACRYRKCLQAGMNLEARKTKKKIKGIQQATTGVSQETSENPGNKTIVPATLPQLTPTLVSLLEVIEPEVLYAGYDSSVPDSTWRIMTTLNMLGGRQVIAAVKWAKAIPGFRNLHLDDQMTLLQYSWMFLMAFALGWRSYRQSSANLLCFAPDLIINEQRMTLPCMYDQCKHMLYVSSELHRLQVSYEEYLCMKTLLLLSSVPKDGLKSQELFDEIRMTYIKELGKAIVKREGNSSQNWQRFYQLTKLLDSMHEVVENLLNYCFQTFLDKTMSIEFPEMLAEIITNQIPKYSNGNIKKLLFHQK

[7] = target: safety screen panel of human pharmacological targets (Homo sapiens, UniProt P37288); settings: read-out: percent inhibition: V1a (h) (agonist radioligand)
Chain of safety screen panel of human pharmacological targets (Homo sapiens, UniProt P37288) (P37288 whole entry): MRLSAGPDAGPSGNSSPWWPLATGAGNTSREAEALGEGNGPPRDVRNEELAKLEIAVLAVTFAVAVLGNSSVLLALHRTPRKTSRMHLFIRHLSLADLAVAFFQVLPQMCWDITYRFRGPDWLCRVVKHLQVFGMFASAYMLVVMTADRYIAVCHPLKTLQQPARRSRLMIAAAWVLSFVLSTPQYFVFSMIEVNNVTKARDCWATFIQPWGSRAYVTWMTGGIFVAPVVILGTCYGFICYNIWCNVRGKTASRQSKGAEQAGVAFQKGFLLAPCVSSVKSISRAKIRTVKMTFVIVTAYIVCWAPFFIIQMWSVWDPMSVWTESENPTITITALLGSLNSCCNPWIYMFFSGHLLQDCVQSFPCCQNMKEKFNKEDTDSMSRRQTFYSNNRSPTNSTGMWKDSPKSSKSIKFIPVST

[8] = target: safety screen panel of human pharmacological targets (Homo sapiens, UniProt P21728); settings: read-out: percent inhibition: D1 (h) (antagonist radioligand)
Chain of safety screen panel of human pharmacological targets (Homo sapiens, UniProt P21728) (P21728 whole entry): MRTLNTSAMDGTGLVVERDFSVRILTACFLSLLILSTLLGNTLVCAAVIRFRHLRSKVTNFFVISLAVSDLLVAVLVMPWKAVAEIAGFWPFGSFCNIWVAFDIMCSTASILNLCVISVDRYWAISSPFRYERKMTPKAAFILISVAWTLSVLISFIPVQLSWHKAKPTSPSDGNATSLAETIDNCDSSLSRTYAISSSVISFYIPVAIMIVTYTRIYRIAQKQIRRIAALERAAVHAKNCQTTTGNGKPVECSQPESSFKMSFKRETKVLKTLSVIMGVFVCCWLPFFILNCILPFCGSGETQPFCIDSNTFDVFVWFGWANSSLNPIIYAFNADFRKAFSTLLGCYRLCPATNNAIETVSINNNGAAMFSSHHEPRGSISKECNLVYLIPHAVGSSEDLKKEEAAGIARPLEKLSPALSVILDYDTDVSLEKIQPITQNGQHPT

SMILES | inhibition at 10 µM [1] [%] | inhibition at 10 µM [2] [%] | inhibition at 10 µM [3] [%] | inhibition at 10 µM [4] [%] | inhibition at 10 µM [5] [%] | inhibition at 10 µM [6] [%] | inhibition at 10 µM [7] [%] | inhibition at 10 µM [8] [%]
CCCCCc1cc(O)c2c(c1)OC(C)(C)[C@@H]1CCC(C)=C[C@@H]21 [VB301, Δ9-Terahydrocannabinol, reference compound] | 13 | 92 | -21 | 9 | 1 | 20 | -2 | 75
CCCCCc1cc(O[C@@H]2O[C@H](CO)[C@@H](O)[C@H](O)[C@H]2O)c2c(c1)OC(C)(C)[C@@H]1CCC(C)=C[C@@H]21 [VB302, Δ9THC-1-O-glucopyranoside] | 4 | 20 | -4 | 30 | 7 | -8 | 8 | 4
CCCCCc1cc(O[C@@H]2O[C@H](CO[C@@H]3O[C@H](CO)[C@@H](O)[C@H](O)[C@H]3O)[C@@H](O[C@@H]3O[C@H](CO)[C@@H](O)[C@H](O)[C@H]3O)[C@H](O)[C@H]2O)c2c(c1)OC(C)(C)[C@@H]1CCC(C)=C[C@@H]21 [VB311] | 10 | 4 | -13 | 11 | -1 | 12 | 7 | 37

Reference: patent US20230346952A1, “CANNABINOID GLYCOSIDE PRODRUGS AND METHODS OF SYNTHESIS” (priority 2015, published 2023)
